Experimental data taken from PubChem BioAssay AID2060325 (Molecular Pharmacology Branch, DTP, NCI, 2025).

Test system: SK-OV-3 multi-cell spheroids, viability
Assay: Anticancer human tumor SK-OV-3 cell line growth inhibition [IpAb];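 as to viability, T/C: viability read after seven days of drug exposure; percent of DMSO vehicle control luminescence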
Details: for IC50: curve of first compound; for viability, T/C: stronger effect = lower value
From the text: Combinatorial screen of targeted agents with ipatasertib and abemaciclib in multi-cell type tumor spheroids
A high-throughput screen of multi-cell type tumor spheroids was designed to identify active combinations of targeted small molecules and ipatasertib or abemaciclib. Complex spheroids include a stromal component modeled by human endothelial cells (HUVEC) and fibroblasts modeled by human mesenchymal stem cells (MSCs). The concentration ranges selected for each drug and investigational agent were based upon clinically achievable concentrations if the clinical Cmax of the agent was known.
Compounds. The drugs and investigational agents: ipatasertib (NSC767898), abemaciclib(NSC768073), selumetinib (NSC741078), trametinib (758246), adavosertib (NSC754352), everolimus (NSC733504), sapanisertib (NSC764658), vemurafenib (NSC761431), venetoclax (NSC766270), copanlisib (NSC809693), apelisib (NSC765974), palbociblib (NSC758247), vemurafenib (NSC761431), dabrafenib (NSC764134), ravoxertinib (NSC781343), BMS-387032 (NSC767048), sotorasib (NSC818433), talazoparib (NSC767125) and afursertib (NSC778305), were obtained from the National Cancer Institute (NCI) Developmental Therapeutics Program Chemical Repository. The FDA-approved anticancer drug set is available from the NCI Developmental Therapeutics Program. […] The stock solutions were prepared in dimethyl sulfoxide (DMSO, Sigma-Aldrich, St. Louis, MO, cat. D2650) at 800-fold the tested concentration and stored at -70 degrees C prior to their use. All drugs and investigational agents were tested over a range starting from a high concentration at or near the clinical Cmax and decreasing in half-log increments. If the clinical Cmax for an agent had not been determined, the highest concentration tested was 10 microM.
NCI60 Cell Culture. NCI60 cell lines were obtained from the NCI Developmental Therapeutics Program Tumor Repository. For each lot of cells, the Repository performed Applied Biosystems AmpFLSTR Identifiler testing with PCR amplification to confirm consistency with the published Identifier STR profile for each cell line. Cells were kept in continuous culture for no more than 20 passages. The optimal seeding densities for each of the cell lines at each time point assessed were determined prior to performing the concentration response studies. Briefly, the NCI60 human tumor lines were grown as monolayers in RPMI 1640 medium supplemented with 10% FBS and 2 mmol/L L-glutamine.
An additional 9 lines were from the NCI60 cell line panel including MDA-MB-231 breast carcinoma, MDA-MB-468 breast carcinoma, MCF7 breast carcinoma, Hs578T breast carcinoma, MALME-3M melanoma, SK-MEL-2 melanoma, SK-OV-3 ovarian carcinoma, DU-145 prostate carcinoma, PC-3 prostate carcinoma, all cell lines along with major genetic alterations are listed on Table 2. Pooled donor human umbilical vein endothelial cells (HUVEC, Lonza, cat. CC-2519) and human mesenchymal stem cells (hMSC, Lonza, cat. PT-2501) were purchased from Lonza (Walkersville, MD).
PDMR cell lines were grown in complete medium (DC medium): Dulbecco's modified Eagle's medium (DMEM)/F12 supplemented with 5% fetal bovine serum (FBS), 2 mM L-glutamine, 100 U/mL penicillin and 100 µg/ml streptomycin, 0.4 µg/ml hydrocortisone, 10 ng/ml epidermal growth factor (EGF) recombinant human protein, 24 µg/mL adenine, and 0.1 mg/mL primocin. During culture from frozen stock vials, PDMR cells were cultured in the same medium containing 10 µM Y-27632 (see Table 3). The PDCs were cultured in complete DMEM/F12 media without 10 microM Y-27632 dihydrochloride for at least two passages prior to the screen. The pooled donor HUVEC and hMSC were cultured in endothelial cell growth medium 2 (PromoCell, Heidelberg, Germany, cat. C-22011) and mesenchymal stem cell growth medium 2 (PromoCell, cat. C-28009), respectively. For all experiments, HUVEC and hMSC were used at passages </=5.
[…]

[1] = second compound 0.1 µM, first compound 0.0316 µM
[2] = second compound 0.1 µM, first compound 0.1 µM
[3] = second compound 0.1 µM, first compound 0.316 µM
[4] = second compound 0.1 µM, first compound 1 µM
[5] = second compound 0.316 µM, first compound 0.0316 µM
[6] = second compound 0.316 µM, first compound 0.1 µM
[7] = second compound 0.316 µM, first compound 0.316 µM
[8] = second compound 0.316 µM, first compound 1 µM
[9] = second compound 1 µM, first compound 0.0316 µM
[10] = second compound 1 µM, first compound 0.1 µM
[11] = second compound 1 µM, first compound 0.316 µM
[12] = second compound 1 µM, first compound 1 µM
[13] = second compound 3.16 µM, first compound 0.0316 µM
[14] = second compound 3.16 µM, first compound 0.1 µM
[15] = second compound 3.16 µM, first compound 0.316 µM
[16] = second compound 3.16 µM, first compound 1 µM
[17] = second compound 10 µM, first compound 0.0316 µM
[18] = second compound 10 µM, first compound 0.1 µM
[19] = second compound 10 µM, first compound 0.316 µM
[20] = second compound 10 µM, first compound 1 µM

**Q.** What does the source list for CC(=O)c1c(C)c2cnc(Nc3ccc(N4CCNCC4)cn3)nc2n(C2CCCC2)c1=O + CC(C)NCC(C(=O)N1CCN(c2ncnc3c2C(C)CC3O)CC1)c1ccc(Cl)cc1?
**A.** IC50 (second compound 0.1 µM): 9.88 nM; IC50 (second compound 0.316 µM): < 0.949 nM; IC50 (second compound 1 µM): < 0.949 nM; IC50 (second compound 3.16 µM): < 0.949 nM; IC50 (second compound 10 µM): < 0.949 nM; viability, T/C (second compound 0.1 µM, first compound 0.000949 µM): 70.5%; viability, T/C (second compound 0.1 µM, first compound 0.003 µM): 62.3%; viability, T/C (second compound 0.1 µM, first compound 0.00949 µM): 50.6%; viability, T/C (second compound 0.1 µM, first compound 0.03 µM): 40.2%; viability, T/C (second compound 0.1 µM, first compound 0.0949 µM): 35.8%; viability, T/C (second compound 0.1 µM, first compound 0.3 µM): 34.2%; viability, T/C (second compound 0.316 µM, first compound 0.000949 µM): 36.3%; viability, T/C (second compound 0.316 µM, first compound 0.003 µM): 32.9%; viability, T/C (second compound 0.316 µM, first compound 0.00949 µM): 28%; viability, T/C (second compound 0.316 µM, first compound 0.03 µM): 25.6%; viability, T/C (second compound 0.316 µM, first compound 0.0949 µM): 23.9%; viability, T/C (second compound 0.316 µM, first compound 0.3 µM): 26.2%; viability, T/C (second compound 1 µM, first compound 0.000949 µM): 20.3%; viability, T/C (second compound 1 µM, first compound 0.003 µM): 18.3%; viability, T/C (second compound 1 µM, first compound 0.00949 µM): 17.6%; viability, T/C (second compound 1 µM, first compound 0.03 µM): 14.7%; viability, T/C (second compound 1 µM, first compound 0.0949 µM): 15.9%; viability, T/C (second compound 1 µM, first compound 0.3 µM): 18.5%; viability, T/C (second compound 3.16 µM, first compound 0.000949 µM): 16.5%; viability, T/C (second compound 3.16 µM, first compound 0.003 µM): 14.7%; viability, T/C (second compound 3.16 µM, first compound 0.00949 µM): 14.1%; viability, T/C (second compound 3.16 µM, first compound 0.03 µM): 15.6%; viability, T/C (second compound 3.16 µM, first compound 0.0949 µM): 13.4%; viability, T/C (second compound 3.16 µM, first compound 0.3 µM): 13.5%; viability, T/C (second compound 10 µM, first compound 0.000949 µM): 9.94%; viability, T/C (second compound 10 µM, first compound 0.003 µM): 9.77%; viability, T/C (second compound 10 µM, first compound 0.00949 µM): 8.83%; viability, T/C (second compound 10 µM, first compound 0.03 µM): 8.26%; viability, T/C (second compound 10 µM, first compound 0.0949 µM): 10.6%; viability, T/C (second compound 10 µM, first compound 0.3 µM): 10.5%

**Q.** How did the IC50 (second compound 0.1 µM) turn out when COc1c(OCCCN2CCOCC2)ccc2c3n(c(=NC(=O)c4cnc(N)nc4)nc12)CCN3 + CC(C)NCC(C(=O)N1CCN(c2ncnc3c2C(C)CC3O)CC1)c1ccc(Cl)cc1 was run?
**A.** 3.82 nM

**Q.** And the IC50 (second compound 0.316 µM)?
**A.** < 3.16 nM

**Q.** What about the IC50 (second compound 1 µM) of the same compound?
**A.** < 3.16 nM

**Q.** What about the IC50 (second compound 3.16 µM) of the same compound?
**A.** < 3.16 nM

**Q.** And the IC50 (second compound 10 µM)?
**A.** < 3.16 nM

**Q.** And the viability, T/C (second compound 0.1 µM, first compound 0.00316 µM)?
**A.** 53.7%

**Q.** What about the viability, T/C (second compound 0.1 µM, first compound 0.01 µM) of the same compound?
**A.** 31.3%

**Q.** And the viability, T/C [1]?
**A.** 12.1%

**Q.** What about the viability, T/C [2] of the same compound?
**A.** 6.59%

**Q.** And the viability, T/C [3]?
**A.** 5.28%

**Q.** And the viability, T/C [4]?
**A.** 3.75%

**Q.** And the viability, T/C (second compound 0.316 µM, first compound 0.00316 µM)?
**A.** 29.5%

**Q.** What about the viability, T/C (second compound 0.316 µM, first compound 0.01 µM) of the same compound?
**A.** 18.4%

**Q.** And the viability, T/C [5]?
**A.** 9.72%

**Q.** And the viability, T/C [6]?
**A.** 7.09%

**Q.** And the viability, T/C [7]?
**A.** 5.47%

**Q.** And the viability, T/C [8]?
**A.** 3.33%

**Q.** And the viability, T/C (second compound 1 µM, first compound 0.00316 µM)?
**A.** 17.3%

**Q.** And the viability, T/C (second compound 1 µM, first compound 0.01 µM)?
**A.** 11%

**Q.** What about the viability, T/C [9] of the same compound?
**A.** 8.59%

**Q.** What about the viability, T/C [10] of the same compound?
**A.** 6.92%

**Q.** And the viability, T/C [11]?
**A.** 4.3%

**Q.** And the viability, T/C [12]?
**A.** 2.76%

**Q.** What about the viability, T/C (second compound 3.16 µM, first compound 0.00316 µM) of the same compound?
**A.** 12.3%

**Q.** What about the viability, T/C (second compound 3.16 µM, first compound 0.01 µM) of the same compound?
**A.** 9.35%

**Q.** And the viability, T/C [13]?
**A.** 8.55%

**Q.** What about the viability, T/C [14] of the same compound?
**A.** 6.85%

**Q.** And the viability, T/C [15]?
**A.** 4.48%

**Q.** And the viability, T/C [16]?
**A.** 2.41%

**Q.** And the viability, T/C (second compound 10 µM, first compound 0.00316 µM)?
**A.** 6.56%

**Q.** And the viability, T/C (second compound 10 µM, first compound 0.01 µM)?
**A.** 5.87%

**Q.** And the viability, T/C [17]?
**A.** 5.36%

**Q.** What about the viability, T/C [18] of the same compound?
**A.** 4.04%

**Q.** And the viability, T/C [19]?
**A.** 2.89%

**Q.** What about the viability, T/C [20] of the same compound?
**A.** 1.6%

**Q.** Which results are given for Cc1nc(NC(=O)N2CCCC2C(N)=O)sc1-c1ccnc(C(C)(C)C(F)(F)F)c1 (stereo not given) + CC(C)NCC(C(=O)N1CCN(c2ncnc3c2C(C)CC3O)CC1)c1ccc(Cl)cc1?
**A.** IC50 (second compound 0.1 µM): 120 nM; IC50 (second compound 0.316 µM): < 31.6 nM; IC50 (second compound 1 µM): < 31.6 nM; IC50 (second compound 3.16 µM): < 31.6 nM; IC50 (second compound 10 µM): < 31.6 nM; viability, T/C [1]: 67.1%; viability, T/C [2]: 52.7%; viability, T/C [3]: 35%; viability, T/C [4]: 19.4%; viability, T/C (second compound 0.1 µM, first compound 3.16 µM): 9%; viability, T/C (second compound 0.1 µM, first compound 10 µM): 5%; viability, T/C [5]: 33.5%; viability, T/C [6]: 30.2%; viability, T/C [7]: 22.5%; viability, T/C [8]: 11.6%; viability, T/C (second compound 0.316 µM, first compound 3.16 µM): 8.53%; viability, T/C (second compound 0.316 µM, first compound 10 µM): 4.14%; viability, T/C [9]: 16.4%; viability, T/C [10]: 15.6%; viability, T/C [11]: 13.8%; viability, T/C [12]: 9.61%; viability, T/C (second compound 1 µM, first compound 3.16 µM): 7.02%; viability, T/C (second compound 1 µM, first compound 10 µM): 4.07%; viability, T/C [13]: 14.5%; viability, T/C [14]: 11.2%; viability, T/C [15]: 7.81%; viability, T/C [16]: 6.61%; viability, T/C (second compound 3.16 µM, first compound 3.16 µM): 6.22%; viability, T/C (second compound 3.16 µM, first compound 10 µM): 4.46%; viability, T/C [17]: 7.89%; viability, T/C [18]: 8.14%; viability, T/C [19]: 5.69%; viability, T/C [20]: 5.04%; viability, T/C (second compound 10 µM, first compound 3.16 µM): 3.63%; viability, T/C (second compound 10 µM, first compound 10 µM): 2.25%
